Here are results for six compounds from patent US5583020A, “Permeability enhancers for negatively charged polynucleotides” (Ribozyme Pharmaceuticals, Inc., priority 1993, dated 1996).

Data set [1] in a line: Diffusion of 32P-ribozyme across a liposome membrane (liposome-associated radioactivity). The class given is in vitro ADME. The source says:
The ribozyme was a 36 mer containing five 2'-O-methyl riboses at the 5' end and the 3' end. The ratio of permeability enhancer molecules per mole of phosphate was about 20:1.

The test system of data set [2] is HeLa cells. Kind of data set: Diffusion of 32P-ribozyme into HeLa cells (cell associated radioactivity). Type of data set: cell-based. Particulars: 20 molecules enhancer per mole of ribozyme phosphate; pH about 4, diluted in DMEM without serum; 1 hour at 37° C., 5% CO2. As for the experimental part:
This example illustrates the ability of an enhancer to facilitate the diffusion of a ribozyme into HeLa cells. […] The sample was diluted up to 1 ml with DMEM media containing no serum and added to HeLa cells. A control was run containing ^32 P-ribozyme without enhancer. Cells were incubated for 1 hour at 37° C. in 5% CO2. The cells were washed 3 times with serum free media and solubilized with 0.5 ml of 1% triton.

The conditions of data set [3]: not told.
Protocol: Specifically, twenty μg of ^32 P radiolabeled ribozyme (1.68×10^-9 moles) was incubated with 1.2×10^-6 moles of permeability enhancer in 50 μl of water to give a pH of about 4. Incubation was carried out at 25° C. for 15 minutes. After the incubation, 1×10^-11 moles of dioleoylphosphatidylcholine liposomes was added to the 50 μl solution. The solution was diluted to 100 μl with 20 mM HEPES (pH 7.4) and centrifuged in a microfuge for 5 minutes to pellet the liposomes. The supernatant was removed and the lipid pellets were washed with 100 μl of 20 mM HEPES (pH 7.4). The lipid pellets were solubilized in 1% Triton X-100 and the amount of radioactivity associated with the lipid pellets was measured. The amount of associated radioactivity reflects the amount of diffusion across the liposome membrane.
A titration of the permeability enhancer to ribozyme was performed by holding the amount of ribozyme constant and increasing the molar charge ratio of the permeability enhancer (aminocaprylic acid) to ribozyme. The experiment was carried out as described above using different amounts of enhancer.
Setting [4] is: ratio of permeability enhancer per mole of phosphate about 20:1, pH about 4, 25° C., 15 minutes, 32P ribozyme (36 mer).

Structures are written as SMILES. Where two headings read alike, the source gives them in different places.

Take `NCCCC(=O)O` [Aminobutyric Acid]: the “% Liposome Associated” value in data set [1] was determined as 0.53%.
Consider `NCCCCCC(=O)O` [Aminocaproic Acid], for which, in data set [1] (setting [4]), the “% Liposome Associated” value is listed as 0.70%.
Turning to `NCCCCCCCC(=O)O` [Aminocaprylic Acid], in data set [1] (setting [4]), the “% Liposome Associated” value was 9.54%. Moreover, the “degree of membrane association (in words)” value in data set [1] (ribozyme, enhancer to phosphate about 20:1) is on record as “highest degree of membrane association”. Also, in data set [2], the “amount of cell associated radioactivity, enhancer:ribozyme versus ribozyme alone” value is listed as 3 fold. The “membrane association on increasing the ratio of enhancer to ribozyme (in words)” value in data set [3] was “concomitant increase in membrane association”.
Turning to `O=C(O)/C=C/c1c[nH]cn1` [Urocanic Acid], the “% Liposome Associated” value in data set [1] is listed as 0.95%.
For `NCC(=O)O` [glycine], the “% Liposome Associated” value in data set [1] (setting [4]) is given as 0.55%.
On to `Nc1cccc(C(=O)O)c1` [m-Aminobenzoic Acid], for which the “% Liposome Associated” value in data set [1] came to 2.54%.
